Values quoted from earlier work as cited in US11000540B1, “Treatment for reducing adverse events including chemotherapy discomfort and other conditions” (priority 2019, dated 2021).

conditions: buffer pair acid/conjugate base

Molecule | pKa of Acid (or pH of 1:1 mixture)
Tris(hydroxymethyl)aminomethane | 8.2
Boric Acid [Boric Acid/Borate] | 9.0
O=S(=O)(O)CCNC1CCCCC1 [N-Cyclohexy1-2-aminoethanesuifonic acid] | 9.3
NCC(=O)O [Glycine/Glycine anion, Glycine] | 9.60
